Experimental data: US20070292392A1, “USE OF THYMOSIN ALPHA 1 FOR PREPARING A MEDICAMENT FOR THE TREATMENT OF STAGE IV MALIGNANT MELANOMA” (SIGMA-TAU INDUSTRIE FARMACEUTICHE RIUNITE S.P.A., priority 2006, published 2007)
Ends that are not written are not given here.

Key:
metastatic melanoma = conditions: cited from earlier work
[1] = test system: stage IV melanoma characterized by distant unresectable metastases; assay: Phase II clinical trial with DTIC plus Tα1 with or without IFNα vs DTIC plus IFNα; tumor response by RECIST; format: in vivo, human; conditions: preliminary analysis on 142 patients; at the higher doses of Tα1
Source text: Phase II Clinical Trial with Dacarbazine (DTIC) Plus Thymosin alpha 1 (Tα1) with or without Interferon alpha (IFNα) vs DTIC Plus IFNα in Stage IV Melanoma Characterized by Distant Unresectable Metastases
Trial Design phase II, randomized, stratified, open-study testing different doses of Tα1 in association with DTIC and IFNα, as first line therapy for stage IV melanoma patients characterized by distant unresectable metastases (AJCC; Journal of Clinical Oncology 2001, 19: 3635-3648) without brain metastases. The primary study end-point was tumor response, and the following combination composition were used:
The protocol was than amended: 30 patients were added to each of the 2 triple therapies in order to balance the sample size of all the four groups and the following new group (using a higher dose of Tα1) was added:
The five groups were analyzed independently one another within the so-called “pick the winner” strategy.
Methods: Recycling every 28 days, patients were administered DTIC (800 mg/m^2) i.v. at day 1, Tα1 (1.6 or 3.2 mg) s.c. at days 8-11 and 15-18, and IFNα (3 MIU) s.c. at day 11 and 18. Clinical response was evaluated every two cycles according to RECIST criteria (New Guidelines to Evaluate the Response to Treatment in Solid Tumors; Journal of the National Cancer Institute, 2000. 92: 205-216) utilizing a central reader. […]

[2] = test system: human non-small cell lung cancer (NSCLC) cells; conditions: subcutaneous 1 or 10 mg per day; nude mice previously inoculated with human NSCLC cells; cited from earlier work
lymphosarcoma cells = conditions: BALB/c mice; cited from earlier work

Row | Compound | duration of responses (short-lived) (metastatic melanoma; DTIC responses) | effect of responses on patients' overall survival (metastatic melanoma; DTIC) | actual overall responses to DTIC (metastatic melanoma; Journal of Clinical Oncology and ASCO proceedings 2004) | dose-response effect on tumor response [1] | tumor volume [2] | local sarcoma growth as well as liver and lung metastases of lymphosarcoma cells (lymphosarcoma cells)
1 | CN(C)/N=N/c1[nH]cnc1C(N)=O [DTIC, Dacarbazine] | three to six | no evidence that these responses have any effect on the patients' overall survival | 5.5-6.8% |  |  | 
2 | thymosin alpha 1 (SDAAVDTSSEITTKDLKEKKEVVEEAEN; ends and bridges not checked; UniProt P06454 2-29, looked up) [a compound well known in the medical field] |  |  |  | clear dose-response effect | significantly decreased | significantly reduced
